The text below walks through data of ChEMBL document CHEMBL4033662, “The computer-aided discovery of novel family of the 5-HT6 serotonin receptor ligands among derivatives of 4-benzyl-1,3,5-triazine” (Eur J Med Chem, 2017).

For one experiment, the target named is 5-hydroxytryptamine receptor 6 (Homo sapiens, UniProt P50406). Kind of experiment: Displacement of [3H]-LSD from human 5-HT6R expressed in HEK293 cells. The class given is cell-based. A general note: In a radioligand displacement assay an active substance lowers the binding of a labelled ligand.
Sequence of 5-hydroxytryptamine receptor 6 (P50406 whole entry): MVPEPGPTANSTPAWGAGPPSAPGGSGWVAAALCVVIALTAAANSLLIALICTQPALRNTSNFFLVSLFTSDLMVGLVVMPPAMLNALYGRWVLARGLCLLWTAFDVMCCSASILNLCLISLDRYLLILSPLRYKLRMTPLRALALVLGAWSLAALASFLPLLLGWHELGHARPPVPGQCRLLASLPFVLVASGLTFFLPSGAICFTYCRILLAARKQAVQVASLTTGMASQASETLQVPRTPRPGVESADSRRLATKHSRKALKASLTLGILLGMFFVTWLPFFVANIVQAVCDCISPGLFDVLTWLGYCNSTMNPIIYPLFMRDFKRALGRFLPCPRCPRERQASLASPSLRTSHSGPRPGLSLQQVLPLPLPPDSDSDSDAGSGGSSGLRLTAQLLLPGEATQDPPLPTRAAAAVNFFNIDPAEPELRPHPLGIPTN
`CN1CCN(c2nc(N)nc(Cc3cccc(F)c3)n2)CC1`: the affinity, expressed as Ki, was 0.064 µM.
The compound `COc1cccc(Cc2nc(N)nc(N3CCN(C)CC3)n2)c1` returned a Ki of 0.158 µM.
Compound `CN1CCN(c2nc(N)nc(Cc3cccs3)n2)CC1` showed a Ki of 0.305 µM.
Still for that read-out and setting: for `CN1CCN(c2nc(N)nc(Cc3cccc4ccccc34)n2)CC1` the value was 0.02 µM.
The same measure, in the same setting: for `CN1CCN(c2nc(N)nc(Cc3ccccc3Cl)n2)CC1` the value was 0.056 µM.
On the same count and under the same terms, for `CN1CCN(c2nc(N)nc(Cc3ccccc3F)n2)CC1` the value was 0.088 µM; for `Cc1ccc(Cc2nc(N)nc(N3CCN(C)CC3)n2)cc1`, 0.064 µM; for `CN1CCN(c2nc(N)nc(Cc3c[nH]c4ccccc34)n2)CC1`, 0.022 µM.
`CN1CCN(c2nc(N)nc(Cc3ccc(F)cc3)n2)CC1` displayed a Ki of 0.1 µM.
Still for that read-out and setting: for `CN1CCN(c2nc(N)nc(Cc3ccncc3)n2)CC1` the value was 1.83 µM; for `COc1ccc(Cc2nc(N)nc(N3CCN(C)CC3)n2)cc1`, 0.44 µM; for `CN1CCN(c2nc(N)nc(Cc3ccccc3)n2)CC1`, 0.095 µM.
`Cc1ccccc1Cc1nc(N)nc(N2CCN(C)CC2)n1` returned a Ki of 0.08 µM.
The same measure, in the same setting: as for `CN1CCN(c2nc(N)nc(Cc3ccc(Cl)c(Cl)c3)n2)CC1`, the figure is 0.032 µM; as for `COc1ccccc1Cc1nc(N)nc(N2CCN(C)CC2)n1`, 0.193 µM.
The same measure, in the same setting: as for `CN1CCN(c2nc(N)nc(Cc3cccc(Cl)c3)n2)CC1`, the figure is 0.028 µM.

For the next experiment, the system named is Rattus norvegicus. The experiment can be described thus: Antidepressant activity in Wistar rat assessed as decrease in immobility time at 0.3 mg/kg, ip administered 60 mins prior to testing measured for 5 mins by forced swim test. The format is functional. On the set-up: scale not given: the % may be the effect or the level left.
On to `Cc1cccc(Cc2nc(N)nc(N3CCN(C)CC3)n2)c1`, for which the Activity is 30%.
Same read-out and setting: for `CN1CCN(c2nc(N)nc(Cc3c[nH]c4ccccc34)n2)CC1` the value was 37%.
The same measure, in the same setting: as for `CN1CCN(c2nc(N)nc(Cc3cccc(Cl)c3)n2)CC1`, the figure is 29%.

A word on the Ki: it is a measure of affinity in units of concentration, obtained from inhibition or displacement.
